These results are taken from patent US20030232013A1, “Therapeutic and diagnostic targeting of cancers cells with tumor homing peptides” (priority 2002, published 2003).

Structures can show the parent of a compound that is named as a salt. Where two headings read alike, the source gives them in different places. Numbered stars: 1 amine (or outer) side, 2 acyl side, 3 side chain; on linkers, the order of the positions; unused ones are H or OH. Bridge positions count the residues as written; N and C are the ends. Square brackets hold non-standard residues; d marks the D form. Peptide text beside a SMILES is read from it. I, II: the chains in the order shown. * marks the point of attachment. Actinocin(9to1) = Cc1c2oc3c(C)ccc(C(=O)[*:1])c3nc-2c(C(=O)[*:2])c(N)c1=O; DOTA = O=C(O)CN1CCN(CC(=O)O)CCN(CC(=O)*)CCN(CC(=O)O)CC1; NMeV = CN[C@H](C(=O)O)C(C)C; Ahx = NCCCCCC(=O)O; Sar = CNCC(=O)O

The conditions of series [1]: in vivo; cited from earlier work.
In series [2] the test system is T47D (Human) breast cancer cells. Nature of the series: In vitro competitive cell binding assay, T47D. The conditions noted are these: competitive binding vs. ^125I-Tyr^5-6-Ahx-Phe^19-STh or ^125I-Tyr^5-Phe^19-STh; read-out: In vitro IC50, Breast T47D (Human). The method, then:
(§1) In Vitro Competitive Cell Binding Assay. The IC50 values of both metallated and non-metallated STh conjugates were determined in human cancer cells by a competitive displacement cell binding assay using ^125I-STh (^125I-Tyr^5-Phe^19-STh or ^125I-Tyr^5-6-Ahx-Phe^19-STh). […] After the incubation, the reaction medium was aspirated and cells were washed three times with media. The radioactivity bound to the cells was counted in a Packard Riastar gamma counting system. The ^125I-STh bound to cells was plotted vs. increasing concentrations of STh conjugate to determine the respective IC50 values (Table 3). For statistical considerations, three separate in vitro cell binding experiments with each conjugate were performed in duplicate.

Series [3] concerns MB-231 (Human) breast cancer cells. The series can be described thus: In vitro competitive cell binding assay, MB-231. The conditions noted are these: competitive binding vs. ^125I-Tyr^5-6-Ahx-Phe^19-STh or ^125I-Tyr^5-Phe^19-STh; read-out: In vitro IC50, Breast MB-231 (Human). The method, then:
as §1

For series [4], the system named is MCF-7 (Human) breast cancer cells. The series can be described thus: In vitro competitive cell binding assay, MCF-7. The conditions noted are these: competitive binding vs. ^125I-Tyr^5-6-Ahx-Phe^19-STh or ^125I-Tyr^5-Phe^19-STh. The protocol: as §1
The test system of series [5] is CFPAC-1 (Human) pancreatic cancer cells. Nature of the series: In vitro competitive cell binding assay, CFPAC-1. The conditions noted are these: competitive binding vs. ^125I-Tyr^5-6-Ahx-Phe^19-STh or ^125I-Tyr^5-Phe^19-STh. The method, then:
as §1

Series [6] has as its system PC-3 (Human) prostate cancer cells. Nature of the series: In vitro competitive cell binding assay, PC-3. The conditions noted are these: competitive binding vs. ^125I-Tyr^5-6-Ahx-Phe^19-STh or ^125I-Tyr^5-Phe^19-STh. The protocol:
as §1

Series [7] concerns A375 (Human) melanoma cells. The series can be described thus: In vitro competitive cell binding assay, A375. The conditions noted are these: competitive binding vs. ^125I-Tyr^5-6-Ahx-Phe^19-STh or ^125I-Tyr^5-Phe^19-STh. The protocol:
as §1

The conditions of series [8]: in vivo, cited from earlier work.
For series [9] the following is noted: in vivo; cited from earlier work. This is another data set of the same source.
For series [10] the following is noted: cited from earlier work.
The conditions of series [11]: oral radioactive lomustine, cited from earlier work.
For series [12] the following is noted: cited from earlier work. This is another data set of the same source.
The subject of another series is T-47D cells. The series can be described thus: Scatchard analysis, T-47D. The series is classed as binding, human. The method, then:
(§2) Scatchard Analysis. Scatchard analysis was performed in human cancer cells by a receptor-binding assay using ^125I-STh and 6-Ahx-Phe^19-STh or Phe^19-STh. […] After the incubation, the reaction medium was aspirated and cells were washed three times with media. The radioactivity bound to the cells was counted in a Packard Riastar gamma counting system. The experiment was performed in duplicate and average values were used for the calculations. The total bound peptide (B, both radioactive and non-radioactive), was obtained by multiplying the fraction of bound labeled peptide with the total concentration of peptide (both radioactive and non-radioactive). The total free peptide (F, both radioactive and non-radioactive) was obtained by substracting the total bound peptide from the total concentration of peptide. The non-specific binding was neglected in the calculations as it was <3%. The ratio of concentration of total bound and total free peptide (B/F) was plotted vs. total bound peptide (B) to determine the Kd (−1/slope) and Bmax (X-intercept) values. The number of receptors per cell was calculated from the Bmax (Table 4).

In another series the test system is MB-231 cells. Nature of the series: Scatchard analysis, MB-231. The series is classed as binding, human. The method, then: as §2
For series [13] the following is noted: in vivo; cited from earlier work. This is another data set of the same source.
The test system of a further series is multiple myeloma. Particulars: oral administration; cited from earlier work.
The conditions of series [14]: cited from earlier work. This is another data set of the same source.
For series [15] the following is noted: humans, cited from earlier work.
Series [16] concerns chronic myelogenous leukemia. Particulars: previously untreated chronic myelogenous leukemia; cited from earlier work.
Another series has as its system Hodgkin's disease. The conditions noted are these: cited from earlier work.
The mark [17] stands for this setting: single oral doses of about 0.6 mg/kg to about […].
[18] abbreviates: at equilibrium, calculated using Bmax value.

As for `N.N.[Cl][Pt][Cl]` [Cisplatin], in series [1], the oral absorption result is given as “not absorbed orally”.

`CC(C)C[C@@H]1NC(=O)[C@H](CCC(=O)O)NC(=O)[C@@H]2CSSC[C@@H]3NC(=O)[C@H](C)NC(=O)[C@@H]4CCCN4C(=O)[C@H](CC(N)=O)NC(=O)[C@H](CSSC[C@H](NC(=O)[C@H](Cc4ccc(O)cc4)NC(=O)[C@H](CC(N)=O)NC(=O)[C@H](CO)NC(=O)[C@H](CO)NC(=O)[C@H](CC(N)=O)NC(=O)CCCCCNC(=O)CN4CCN(CC(=O)O)CCN(CC(=O)O)CCN(CC(=O)O)CC4)C(=O)N2)NC(=O)[C@H](CSSC[C@@H](C(=O)N[C@@H](Cc2ccccc2)C(=O)O)NC(=O)CNC(=O)[C@H]([C@@H](C)O)NC3=O)NC1=O` [DOTA-6-Ahx-Phe^19-STh] ({DOTA-Ahx}-NSSNYCCELCCNPACTGCF-OH; disulfide 6-11, 7-15, 10-18): the IC50 in series [2] was 0.5 nM; in series [3], 3.9 nM; in [4] it was 14.1 nM; in series [5], 2.8 nM; in series [6] it was 7 nM; in [7], 1.5 nM.

`COc1cccc2c1C(=O)c1c(O)c3c(c(O)c1C2=O)C[C@@](O)([C@H](C)O)C[C@@H]3O[C@H]1C[C@H](N)[C@H](O)[C@H](C)O1` [daunorubicinol]: the “half-life of active metabolite” value in series [8] is “about 27 hours”.

`COc1cccc2c1C(=O)c1c(O)c3c(c(O)c1C2=O)C[C@@](O)(C(C)=O)C[C@@H]3O[C@H]1C[C@H](N)[C@H](O)[C@H](C)O1` [Daunorubicin, 5,12-Naphthacenedione, (8S-cis)-8-acetyl-10-[(3-amino-2,3,6-trideoxy-a-L-lyxo-hexanopyranosyl)oxy]-7,8,9,10-tetrahydro-6,8,11-trihydroxy-10-methoxy-, hydrochloride]: in series [8] (po), the oral absorption entry is reported as “poor”. In addition, in series [8], the half-life of elimination result was “about 19 hours”.

Take `CC(C)C[C@@H]1NC(=O)[C@H](CCC(=O)O)NC(=O)[C@@H]2CSSC[C@@H]3NC(=O)[C@H](C)NC(=O)[C@@H]4CCCN4C(=O)[C@H](CC(N)=O)NC(=O)[C@H](CSSC[C@H](NC(=O)[C@H](Cc4ccc(O)cc4)NC(=O)[C@H](CC(N)=O)NC(=O)[C@H](CO)NC(=O)[C@H](CO)NC(=O)[C@H](CC(N)=O)NC(=O)CN4CCN(CC(=O)O)CCN(CC(=O)O)CCN(CC(=O)O)CC4)C(=O)N2)NC(=O)[C@H](CSSC[C@@H](C(=O)N[C@@H](Cc2ccccc2)C(=O)O)NC(=O)CNC(=O)[C@H]([C@@H](C)O)NC3=O)NC1=O` [In-DOTA-Phe^19-STh] ({DOTA}-NSSNYCCELCCNPACTGCF-OH; disulfide 6-11, 7-15, 10-18): in [2], the concentration for half-maximal inhibition (IC50) was found to be 8.9 ± 2.2 nM.

Turning to `Cc1c2oc3c(C)ccc(C(=O)N[C@@H]4C(=O)N[C@H](C(C)C)C(=O)N5CCC[C@H]5C(=O)N(C)CC(=O)N(C)[C@@H](C(C)C)C(=O)O[C@@H]4C)c3nc-2c(C(=O)N[C@@H]2C(=O)N[C@H](C(C)C)C(=O)N3CCC[C@H]3C(=O)N(C)CC(=O)N(C)[C@@H](C(C)C)C(=O)O[C@@H]2C)c(N)c1=O` [Actinomycin D] (I: T[dV]P[Sar][NMeV] / II: T[dV]P[Sar][NMeV]; ester I:1-I:C, II:1-II:C; linker I:N-II:N via Actinocin(9to1)), in series [9], the “dose excreted intact into the bile” value is “Half of the dose”, the “dose excreted intact into the urine” value was 10%, the half-life entry is given as “about 36 hours” and the “passage of the blood-brain barrier” value is “does not pass the blood-brain barrier”.

Turning to `O=C(O)CCCc1ccc(N(CCCl)CCCl)cc1` [Chlorambucil, 4-[bis(2-chlorethyl)amino] benzenebutanoic acid], the “absorption from the gastrointestinal tract” value in [10] (oral, tablet) was “rapidly and completely absorbed”. Further, in series [10] (setting [17]), the “terminal half-life of the parent drug” value is “about 1.5 hours” and the “time to peak plasma chlorambucil levels” value was “within one hour”.

As for `O=NN(CCCl)C(=O)NC1CCCCC1` [Lomustine, 1-(2-chloro-ethyl)-3-cyclohexyl-1 nitrosourea], the “radioactivity excreted in the form of degradation products within 24 hours” value in series [11] (about 30 mg/m^2 to 100 mg/m^2) is “about half”. Further, in [11], the “serum half-life of the metabolites” value is listed as “about 16 hours to about 2 days”. Also, the “solubility in 10% ethanol” value in series [12] (10% ethanol) is listed as “about 0.05 mg/mL”. The “solubility in absolute alcohol” value in series [12] (absolute alcohol) was “about 70 mg/mL”. Moreover, in [12] (physiological pH), the “ionization at physiological pH” value is recorded as “relatively unionized”. For the same compound, in series [12], the solubility in water result was “less than 0.05 mg/mL”.

For the compound ^125I-Tyr^5-6-Ahx-Phe^19-STh, the Kd was 4.4 nM in the series with T-47D cells (Scatchard plot) and 4 nM in the series on MB-231 cells (Scatchard plot). Besides, the entries for the “No. of receptors per cell” value with T-47D cells (setting [18]) and with MB-231 cells (setting [18]) were 41,758 and 112,786, respectively.

Turning to `O=NN(CCCl)C(=O)NCCCl` [Carmustine, 1,3 bis(2-chloroethyl)-1-nitrosourea], the “solubility in alcohol and lipids” value in series [12] (alcohol and lipids) is recorded as “highly soluble”. The “solubility in water” value in series [12] is on record as “poorly soluble in water”.

Regarding `COc1cccc2c1C(=O)c1c(O)c3c(c(O)c1C2=O)C[C@@](O)(C(=O)CO)C[C@@H]3O[C@H]1C[C@H](N)[C@H](O)[C@H](C)O1` [Doxorubicin, 5,12-Naphthacenedione, (8s-cis)-10-[(3-amino-2,3,6-trideoxy-a-L-lyxo-hexopyranosyl)oxy]-7,8,9,10-tetrahydro-6,8, 11-trihydroxy-8-(hydroxyacetyl)-1-methoxy-hydrochloride], in [13], the absorption entry is reported as “absorbed poorly” and the elimination half-life result was “about 30 hours”.

As for `N[C@@H](Cc1ccc(N(CCCl)CCCl)cc1)C(=O)O` [Melphalan, 4-[bis(2-chloroethyl)amino]-L-phenylalanine], the “patients with multiple myeloma showing a favorable response” value in the series on multiple myeloma is “about one third to one half”. The “solubility in water” value in [12] is given as “insoluble in water”.

As to `CC[C@]1(O)C[C@H]2CN(CCc3c([nH]c4ccccc34)[C@@](C(=O)OC)(c3cc4c(cc3OC)N(C=O)[C@H]3[C@@](O)(C(=O)OC)[C@H](OC(C)=O)[C@]5(CC)C=CCN6CC[C@]43[C@@H]65)C2)C1` [vincristine], the “terminal half-life (plasma)” value in series [14] (in vivo) was “about 24 hours”.

`CO[C@@]12[C@H](COC(N)=O)C3=C(C(=O)C(C)=C(N)C3=O)N1C[C@@H]1N[C@@H]12` [Mitomycin]: in series [15] (30 mg bolus injection), the “time required to reduce the serum concentration by about 50%” value was 17 min. Further, the “dose excreted unchanged in the urine” value in series [15] is reported as “Approximately 10%”.

Turning to `CS(=O)(=O)OCCCCOS(C)(=O)=O` [Busulfan, 1,4-butanediol dimethanesulfonate], in [16], the “adults obtaining hematologic remission with regression or stabilization of organomegaly” value is reported as “Approximately 90%”.

As for `CC[C@]1(O)C[C@@H]2CN(CCc3c([nH]c4ccccc34)[C@@](C(=O)OC)(c3cc4c(cc3OC)N(C)[C@H]3[C@@](O)(C(=O)OC)[C@H](OC(C)=O)[C@]5(CC)C=CCN6CC[C@]43[C@@H]65)C2)C1` [vinblastine], in the series on Hodgkin's disease, the “cases with significant improvement” value is 50 to 90%. In series [14] (intravenous injection), the “half-life of disappearance from plasma after distribution” value is around 20 h and the “half-life of disappearance from plasma after distribution (first given)” value is reported as “approximately 1 hours”.

What is called IC50 is the concentration that inhibits the measured activity by half. As usually defined, the Kd is the concentration at which binding is half-saturated. Read a high Kd as a looser complex.
